Test results published in EP1136503A1, “NOVEL PHYSIOLOGICALLY ACTIVE SUBSTANCE, PROCESS FOR PRODUCING THE SAME AND UTILIZATION THEREOF” (Takeda Chemical Industries, Ltd., priority 1998, dated 2001).
Blank lines part the entries; values can stand above or below the substance they belong to. Where no end group is shown, it is not given here.

Key:
human SENR (human) = assay: cell-based or functional assay
rat SENR [1] = assay: cAMP synthesis suppression in rat SENR-expression CHO cells; assay type: cell-based; settings: forskolin
Method: A method for the cAMP synthesis suppressing activity of the bovine SENR ligand (SEQ ID NO:21) synthesized in EXAMPLE 14 on rat SENR-expression CHO cells is shown below. The CHO/SENR cells were inoculated on a 24-well plate in 5 × 10^4 cells/well followed by cultivation for 48 hours. The cells were then washed with Hanks' buffer (pH 7.4) containing 0.2 mM 3-isobutyl-methylxanthine, 0.05% BSA and 20 mM HEPES (hereinafter Hanks' buffer (pH 7.4) containing 0.2 mM 3-isobutyl-methylxanthine, 0.05% BSA and 20 mM HEPES is referred to as a reaction buffer). Thereafter, 0.5 ml of the reaction buffer was added to the system, which was kept in the medium for 30 minutes. The reaction buffer was removed and 0.25 ml of a fresh reaction buffer was added to the cells. Then, 0.25 ml of the reaction buffer containing various amounts of bovine SENR ligand and 2 µM forskolin was added to the cells followed by reacting at 37°C for 24 minutes. By adding 100 µl of 20% perchloric acid, the reaction was terminated. The reaction mixture was then allowed to stand on ice for an hour to extract intracellular CAMP. The amount of cAMP in the extract was measured using cAMP EIA kit (Amersham Pharmacia Biotech).

rat SENR [2] = assay: GTPγS binding to rat SENR-expression CHO cell membrane fraction; assay type: biochemical; settings: peptide in various concentrations, 25°C 1 hour
Method: The [^35S] -guanosine 5'-(γ-thio)triphosphate binding promoting activity of bovine SENR ligand (SEQ ID NO:21) on SENR-expression CHO cell membrane fraction was measured by the following method. First, preparation of membrane fraction is described. To 1 x 10^8 of CHO/SENR cells was added 10 ml of a homogenate buffer (10 mM NaHCO3, 5 mM EDTA, 0.5 mM PMSF, 1 µg/ml pepstatin, 4 µg/ml E64, 20 µg/ml leupeptin), which was homogenized by using Polytron (12,000 rpm, 1 min.). The cell homogenate was subjected to centrifugation (1,000 g, 15 mins.) to give the supernatant. Next, the supernatant was subjected to ultracentrifugation (Beckman type 30 rotor, 30,000 rpm, 1 hour). The resulting precipitate was used as a rat SENR-expression CHO cell membrane.
The GTPγS binding activity was measured as follows. The rat SENR-expression CHO cell membrane was diluted with a buffer for membrane dilution (50 mM Tris-hydrochloride buffer (pH 7.4), 5 mM MgCl2, 150 mM NaCl, 1 µM GDP) to prepare a cell membrane fraction solution for assay having a protein concentration of 30 µg/ml. […] After washing twice with 1.5 ml of a buffer for filter washing (50 mM Tris-hydrochloride buffer (pH 7.4), 5 mM MgCl2, 1 mM EDTA, 0.1% BSA), radioactivity of the filter was measured using a liquid scintillation counter.

[3] = Blood pressure of rats under anesthesia; assay type: in vivo, Male Wistar rats; settings: 10 nmols/kg intravenous, 8 rats, average + standard error
Method: The activity of the synthetic SENR ligand polypeptides ① and ② (SEQ ID NO:7 and SEQ ID NO:8) in various concentrations, which were synthesized in EXAMPLES 12 and 13, on blood pressure of rats under anesthesia was measured by the following method. Male Wistar rats of 8 to 9 weeks old (purchased from Nippon Crea Co.) were anesthetized with Nembutal injection (Dai-Nippon Pharmaceutical Co., 50 mg/ml sodium pentobarbital, 50 mg/kg i.p.). A catheter (SP-55) for blood pressure measurement connected with a transducer was inserted into the left carotid artery and a catheter (SP-35) for intravenous injection into the left femoral vein. The synthetic ligand was dissolved in physiological saline containing 0.05% BSA, which was cannulated through the left femoral vein in a dose of 1, 10 or 100 nmol/kg. The blood pressure was continuously recorded by means of a polygraph (manufactured by NEC Sanei Co.). […] The hypotensive action was shown by the average blood pressure reduced by administration of SENR ligand to the average blood pressure prior to administration. […]

[4] = biological target: rat SENR (sensory epithelium neuropeptide-like receptor) (rat); assay: cell-based or functional assay

- cAMP synthesis suppressing activity (forskolin-stimulated; concentration at which an obvious reduction was seen) (human SENR (human)): 0.3 nM
Substance: human SENR ligand (human urotensin II) (peptide)

Substance: GPPSECFWKYCV (cysteine pairing not given here) [Bovine SENR ligand, Cys 6th and 11th form intramolecular disulfide bond]
- amount of intracellular cAMP (rat SENR [1]; increasing peptide concentration): decreased dose dependently
- amount of intracellular cAMP (rat SENR [1]; peptide 0.3 nM, 37°C 24 minutes): obviously reduced
- amount of [^35S]-guanosine 5'-(γ-thio)triphosphate bound to the membrane fraction (rat SENR [2]): dose-dependently increased
- Average blood pressure decreased [3]: 35.7 ± 7.0 mmHg

- cAMP synthesis suppressing activity (forskolin-stimulated; concentration at which an obvious reduction was seen) [4]: 0.3 nM
Substance: bovine SENR ligand (peptide)
